Peptide text beside a SMILES is read from it. Bounds are passed on as bounds.

The data set addresses T1, GC-C receptor (Homo sapiens, UniProt P25092).
T1 construct: endogenous in cells; host or cells: T-84 cells
As to the kind of experiment: GC-C receptor T-84 cell assay (toxicity, cGMP levels) of culture filtrates. It is filed as cell-based. As to conditions: relative to native STh; culture filtrate; ^2 = no detectable toxicity, set to detection limit 0.0014. The protocol:
T-84 cells were seeded and cultured in each well of a 24 well plate. After removing the Dulbecco's modified Eagle's medium (DMEM:F12 (1:1) Lonza Walkersville, Inc.), cells were washed 3 times with 0.5 mL DMEM. Cells were incubated with 0.25 mL DMEM containing 1 mM 3-isobutyl-1-methylxanthine (IBMX) for 10 min at 37° C. 0.1 mL of sample (culture filtrate) was added to each well and incubated for 60 min at 37° C. Following incubation, the reaction medium was aspirated, and the cells were lysed with […] HCl at room temperature for 20 min. The lysates were centrifuged at top speed for 10 min and the cGMP levels were measured in control- and agonist-stimulated cells with a direct cGMP enzyme immunoassay kit (Enzo Life Sciences, Inc.) according to the manufacturer's instructions.
The culture filtrate of each mutant was added to the T-84 cells in duplicate, and a serial dilution of culture filtrates with recombinantly expressed native ST was used to generate a standard curve.
Toxicity measured in culture filtrates is a product of intrinsic toxicity (toxicity per mol) and the concentration of the ST mutant. The same is true for antigenicity. […] Since we have no method for accurately measuring ST (mutant) concentrations in culture filtrates, we are not able to directly measure intrinsic toxicities and antigenicities for the ST mutants.
To circumvent this problem we measure toxicity and antigenicity for the ST mutants relative to native ST. This allows us to describe changes in toxicity and antigenicity in mutant culture filtrates. Next, we divide the change in antigenicity by the change in toxicity for each mutant. If the same culture filtrate has been used to measure toxicity and antigenicity this allows us to eliminate the of the concentration.

T1 sequence (P25092 24-1073): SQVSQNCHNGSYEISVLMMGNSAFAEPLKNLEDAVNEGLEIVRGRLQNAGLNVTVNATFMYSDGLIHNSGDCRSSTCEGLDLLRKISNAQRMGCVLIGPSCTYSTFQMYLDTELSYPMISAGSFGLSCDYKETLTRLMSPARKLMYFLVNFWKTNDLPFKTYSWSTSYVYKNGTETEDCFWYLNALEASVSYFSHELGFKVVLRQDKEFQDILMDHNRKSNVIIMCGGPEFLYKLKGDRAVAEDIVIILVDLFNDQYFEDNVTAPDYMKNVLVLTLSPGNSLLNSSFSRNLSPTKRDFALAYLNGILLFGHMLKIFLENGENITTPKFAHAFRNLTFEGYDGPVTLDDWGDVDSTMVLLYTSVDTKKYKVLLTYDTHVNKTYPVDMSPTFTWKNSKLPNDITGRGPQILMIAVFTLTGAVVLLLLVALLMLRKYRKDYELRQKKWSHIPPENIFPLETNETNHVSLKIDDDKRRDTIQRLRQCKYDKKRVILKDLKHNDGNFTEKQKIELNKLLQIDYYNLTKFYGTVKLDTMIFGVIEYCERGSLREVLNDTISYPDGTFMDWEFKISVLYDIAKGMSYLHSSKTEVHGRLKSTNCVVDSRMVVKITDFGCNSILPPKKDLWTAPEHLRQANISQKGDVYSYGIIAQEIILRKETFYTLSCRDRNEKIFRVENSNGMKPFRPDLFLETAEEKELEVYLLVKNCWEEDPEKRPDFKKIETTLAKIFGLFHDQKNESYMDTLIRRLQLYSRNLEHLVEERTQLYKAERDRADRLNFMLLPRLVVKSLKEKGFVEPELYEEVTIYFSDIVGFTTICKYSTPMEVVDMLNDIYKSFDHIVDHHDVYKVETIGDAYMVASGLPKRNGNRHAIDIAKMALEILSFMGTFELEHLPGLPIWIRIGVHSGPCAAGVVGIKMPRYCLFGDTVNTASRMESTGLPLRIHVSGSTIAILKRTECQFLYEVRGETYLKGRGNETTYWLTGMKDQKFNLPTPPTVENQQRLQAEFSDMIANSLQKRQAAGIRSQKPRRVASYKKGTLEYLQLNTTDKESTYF

In the case of `CC(C)C[C@@H]1NC(=O)[C@H](CCC(=O)O)NC(=O)[C@@H]2CSSC[C@@H]3NC(=O)[C@H](CCC(=O)O)NC(=O)[C@@H]4CCCN4C(=O)[C@H](CC(N)=O)NC(=O)[C@H](CSSC[C@H](NC(=O)[C@H](Cc4ccc(O)cc4)NC(=O)[C@H](CC(N)=O)NC(=O)[C@H](CO)NC(=O)[C@H](CO)NC(=O)[C@@H](N)CC(N)=O)C(=O)N2)NC(=O)[C@H](CSSC[C@@H](C(=O)N[C@@H](Cc2ccc(O)cc2)C(=O)O)NC(=O)CNC(=O)[C@H]([C@@H](C)O)NC3=O)NC1=O` [Mutant A14E] (HELM PEPTIDE1{N.S.S.N.Y.C.C.E.L.C.C.N.P.E.C.T.G.C.Y}$PEPTIDE1,PEPTIDE1,6:R3-11:R3|PEPTIDE1,PEPTIDE1,7:R3-15:R3|PEPTIDE1,PEPTIDE1,10:R3-18:R3$$$V2.0), the Toxicity was < 0.0014^2.
With `CC(C)C[C@@H]1NC(=O)[C@H](CCC(=O)O)NC(=O)[C@@H]2CSSC[C@@H]3NC(=O)[C@H](Cc4c[nH]cn4)NC(=O)[C@@H]4CCCN4C(=O)[C@H](CC(N)=O)NC(=O)[C@H](CSSC[C@H](NC(=O)[C@H](Cc4ccc(O)cc4)NC(=O)[C@H](CC(N)=O)NC(=O)[C@H](CO)NC(=O)[C@H](CO)NC(=O)[C@@H](N)CC(N)=O)C(=O)N2)NC(=O)[C@H](CSSC[C@@H](C(=O)N[C@@H](Cc2ccc(O)cc2)C(=O)O)NC(=O)CNC(=O)[C@H]([C@@H](C)O)NC3=O)NC1=O` [Mutant A14H] (HELM PEPTIDE1{N.S.S.N.Y.C.C.E.L.C.C.N.P.H.C.T.G.C.Y}$PEPTIDE1,PEPTIDE1,6:R3-11:R3|PEPTIDE1,PEPTIDE1,7:R3-15:R3|PEPTIDE1,PEPTIDE1,10:R3-18:R3$$$V2.0) the figure was < 0.0014^2.
With `CC[C@H](C)[C@@H]1NC(=O)[C@@H]2CCCN2C(=O)[C@H](CC(N)=O)NC(=O)[C@@H]2CSSC[C@H](NC(=O)[C@H](Cc3ccc(O)cc3)NC(=O)[C@H](CC(N)=O)NC(=O)[C@H](CO)NC(=O)[C@H](CO)NC(=O)[C@@H](N)CC(N)=O)C(=O)N[C@H]3CSSC[C@H](NC1=O)C(=O)N[C@@H]([C@@H](C)O)C(=O)NCC(=O)N[C@H](C(=O)N[C@@H](Cc1ccc(O)cc1)C(=O)O)CSSC[C@H](NC(=O)[C@H](CC(C)C)NC(=O)[C@H](CCC(=O)O)NC3=O)C(=O)N2` [Mutant A14I] (HELM PEPTIDE1{N.S.S.N.Y.C.C.E.L.C.C.N.P.I.C.T.G.C.Y}$PEPTIDE1,PEPTIDE1,6:R3-11:R3|PEPTIDE1,PEPTIDE1,7:R3-15:R3|PEPTIDE1,PEPTIDE1,10:R3-18:R3$$$V2.0) the figure was < 0.0014^2; with `CC(C)C[C@@H]1NC(=O)[C@H](CCC(=O)O)NC(=O)[C@@H]2CSSC[C@@H]3NC(=O)[C@H](CCC(N)=O)NC(=O)[C@@H]4CCCN4C(=O)[C@H](CC(N)=O)NC(=O)[C@H](CSSC[C@H](NC(=O)[C@H](Cc4ccc(O)cc4)NC(=O)[C@H](CC(N)=O)NC(=O)[C@H](CO)NC(=O)[C@H](CO)NC(=O)[C@@H](N)CC(N)=O)C(=O)N2)NC(=O)[C@H](CSSC[C@@H](C(=O)N[C@@H](Cc2ccc(O)cc2)C(=O)O)NC(=O)CNC(=O)[C@H]([C@@H](C)O)NC3=O)NC1=O` [Mutant A14Q] (HELM PEPTIDE1{N.S.S.N.Y.C.C.E.L.C.C.N.P.Q.C.T.G.C.Y}$PEPTIDE1,PEPTIDE1,6:R3-11:R3|PEPTIDE1,PEPTIDE1,7:R3-15:R3|PEPTIDE1,PEPTIDE1,10:R3-18:R3$$$V2.0), < 0.0014^2.
Consider `CC(C)C[C@@H]1NC(=O)[C@H](CCC(=O)O)NC(=O)[C@@H]2CSSC[C@@H]3NC(=O)[C@H](CCCNC(=N)N)NC(=O)[C@@H]4CCCN4C(=O)[C@H](CC(N)=O)NC(=O)[C@H](CSSC[C@H](NC(=O)[C@H](Cc4ccc(O)cc4)NC(=O)[C@H](CC(N)=O)NC(=O)[C@H](CO)NC(=O)[C@H](CO)NC(=O)[C@@H](N)CC(N)=O)C(=O)N2)NC(=O)[C@H](CSSC[C@@H](C(=O)N[C@@H](Cc2ccc(O)cc2)C(=O)O)NC(=O)CNC(=O)[C@H]([C@@H](C)O)NC3=O)NC1=O` [Mutant A14R] (HELM PEPTIDE1{N.S.S.N.Y.C.C.E.L.C.C.N.P.R.C.T.G.C.Y}$PEPTIDE1,PEPTIDE1,6:R3-11:R3|PEPTIDE1,PEPTIDE1,7:R3-15:R3|PEPTIDE1,PEPTIDE1,10:R3-18:R3$$$V2.0), for which the Toxicity is < 0.0014^2.
Next, `CC(C)C[C@@H]1NC(=O)[C@H](CCC(=O)O)NC(=O)[C@@H]2CSSC[C@@H]3NC(=O)[C@H]([C@@H](C)O)NC(=O)[C@@H]4CCCN4C(=O)[C@H](CC(N)=O)NC(=O)[C@H](CSSC[C@H](NC(=O)[C@H](Cc4ccc(O)cc4)NC(=O)[C@H](CC(N)=O)NC(=O)[C@H](CO)NC(=O)[C@H](CO)NC(=O)[C@@H](N)CC(N)=O)C(=O)N2)NC(=O)[C@H](CSSC[C@@H](C(=O)N[C@@H](Cc2ccc(O)cc2)C(=O)O)NC(=O)CNC(=O)[C@H]([C@@H](C)O)NC3=O)NC1=O` [Mutant A14T] (HELM PEPTIDE1{N.S.S.N.Y.C.C.E.L.C.C.N.P.T.C.T.G.C.Y}$PEPTIDE1,PEPTIDE1,6:R3-11:R3|PEPTIDE1,PEPTIDE1,7:R3-15:R3|PEPTIDE1,PEPTIDE1,10:R3-18:R3$$$V2.0): < 0.0014^2.
Next, `CC(C)C[C@@H]1NC(=O)[C@H](CCCNC(=N)N)NC(=O)[C@@H]2CSSC[C@@H]3NC(=O)[C@H](C)NC(=O)[C@@H]4CCCN4C(=O)[C@H](CC(N)=O)NC(=O)[C@H](CSSC[C@H](NC(=O)[C@H](Cc4ccc(O)cc4)NC(=O)[C@H](CC(N)=O)NC(=O)[C@H](CO)NC(=O)[C@H](CO)NC(=O)[C@@H](N)CC(N)=O)C(=O)N2)NC(=O)[C@H](CSSC[C@@H](C(=O)N[C@@H](Cc2ccc(O)cc2)C(=O)O)NC(=O)CNC(=O)[C@H]([C@@H](C)O)NC3=O)NC1=O` [Mutant E08R] (HELM PEPTIDE1{N.S.S.N.Y.C.C.R.L.C.C.N.P.A.C.T.G.C.Y}$PEPTIDE1,PEPTIDE1,6:R3-11:R3|PEPTIDE1,PEPTIDE1,7:R3-15:R3|PEPTIDE1,PEPTIDE1,10:R3-18:R3$$$V2.0): 0.0021.
Next, `CC(C)C[C@@H]1NC(=O)[C@H](CCC(=O)O)NC(=O)[C@@H]2CSSC[C@@H]3NC(=O)[C@H](C)NC(=O)[C@@H]4CCCN4C(=O)[C@H](CC(N)=O)NC(=O)[C@H](CSSC[C@H](NC(=O)[C@H](Cc4ccc(O)cc4)NC(=O)[C@H](CC(N)=O)NC(=O)[C@H](CO)NC(=O)[C@H](CO)NC(=O)[C@@H](N)CC(N)=O)C(=O)N2)NC(=O)[C@H](CSSC[C@@H](C(=O)N[C@@H](Cc2ccc(O)cc2)C(=O)O)NC(=O)[C@H](Cc2ccc(O)cc2)NC(=O)[C@H]([C@@H](C)O)NC3=O)NC1=O` [Mutant G17Y] (HELM PEPTIDE1{N.S.S.N.Y.C.C.E.L.C.C.N.P.A.C.T.Y.C.Y}$PEPTIDE1,PEPTIDE1,6:R3-11:R3|PEPTIDE1,PEPTIDE1,7:R3-15:R3|PEPTIDE1,PEPTIDE1,10:R3-18:R3$$$V2.0): 0.0234; `C[C@@H]1NC(=O)[C@@H]2CCCN2C(=O)[C@H](CC(N)=O)NC(=O)[C@@H]2CSSC[C@H](NC(=O)[C@H](Cc3ccc(O)cc3)NC(=O)[C@H](CC(N)=O)NC(=O)[C@H](CO)NC(=O)[C@H](CO)NC(=O)[C@@H](N)CC(N)=O)C(=O)N[C@H]3CSSC[C@H](NC1=O)C(=O)N[C@@H]([C@@H](C)O)C(=O)NCC(=O)N[C@H](C(=O)N[C@@H](Cc1ccc(O)cc1)C(=O)O)CSSC[C@H](NC(=O)CNC(=O)[C@H](CCC(=O)O)NC3=O)C(=O)N2` [Mutant L09G] (HELM PEPTIDE1{N.S.S.N.Y.C.C.E.G.C.C.N.P.A.C.T.G.C.Y}$PEPTIDE1,PEPTIDE1,6:R3-11:R3|PEPTIDE1,PEPTIDE1,7:R3-15:R3|PEPTIDE1,PEPTIDE1,10:R3-18:R3$$$V2.0): < 0.0014^2; `CSCC[C@H](N)C(=O)N[C@@H](CO)C(=O)N[C@@H](CO)C(=O)N[C@@H](CC(N)=O)C(=O)N[C@@H](Cc1ccc(O)cc1)C(=O)N[C@H]1CSSC[C@@H]2NC(=O)[C@@H]3CSSC[C@@H](C(=O)N[C@@H](Cc4ccc(O)cc4)C(=O)O)NC(=O)CNC(=O)[C@H]([C@@H](C)O)NC(=O)[C@H](CSSC[C@H](NC1=O)C(=O)N[C@@H](CCC(=O)O)C(=O)N[C@@H](CC(C)C)C(=O)N3)NC(=O)[C@H](C)NC(=O)[C@@H]1CCCN1C(=O)[C@H](CC(N)=O)NC2=O` [Mutant N01M] (HELM PEPTIDE1{M.S.S.N.Y.C.C.E.L.C.C.N.P.A.C.T.G.C.Y}$PEPTIDE1,PEPTIDE1,6:R3-11:R3|PEPTIDE1,PEPTIDE1,7:R3-15:R3|PEPTIDE1,PEPTIDE1,10:R3-18:R3$$$V2.0): 1.8910.
Molecule `CC(C)C[C@@H]1NC(=O)[C@H](CCC(=O)O)NC(=O)[C@@H]2CSSC[C@@H]3NC(=O)[C@H](C)NC(=O)[C@@H]4CCCN4C(=O)[C@H](CC(N)=O)NC(=O)[C@H](CSSC[C@H](NC(=O)[C@H](Cc4ccc(O)cc4)NC(=O)[C@H](CC(C)C)NC(=O)[C@H](CO)NC(=O)[C@H](CO)NC(=O)[C@@H](N)CC(N)=O)C(=O)N2)NC(=O)[C@H](CSSC[C@@H](C(=O)N[C@@H](Cc2ccc(O)cc2)C(=O)O)NC(=O)CNC(=O)[C@H]([C@@H](C)O)NC3=O)NC1=O` [Mutant N04L] (HELM PEPTIDE1{N.S.S.L.Y.C.C.E.L.C.C.N.P.A.C.T.G.C.Y}$PEPTIDE1,PEPTIDE1,6:R3-11:R3|PEPTIDE1,PEPTIDE1,7:R3-15:R3|PEPTIDE1,PEPTIDE1,10:R3-18:R3$$$V2.0) returned a Toxicity of 0.2934.

For the origin of these results see patent US10166279B2, “Vaccine” (Bergen Teknologioverføring AS, priority 2013, dated 2019).
